# Earlier results, collected in PubChem BioAssay AID1259409 (Chemical Carcinogenesis Research Information System (CCRIS), 2018).
# System: rodent chemically induced tumor inhibition, incidence and multiplicity
# Test: CCRIS tumor inhibitor studies
# Conditions: Dose [Inhibitor]: 0, Route [Inhibitor]: DERMAL, Species: MOUSE; for tumour outcome (control, treated, inhibition, significance): Carcinogen: 7,12-DIMETHYLBENZ[A]ANTHRACENE, 57-97-6, 20 UMOL IN 0.4 ML ACETONE 20 MIN PRIOR TO EACH PROMOTER DOSE (STUDY DURATION: 47 WK), Strain/Sex: CF-1/FEMALE, Dose [Carcinogen]: 100 NMOL IN 0.2 ML ACETONE ONCE
SMILES,"tumour outcome (control, treated, inhibition, significance) (Target Tissue: Type of Lesion: SKIN: CARCINOMA)","tumour outcome (control, treated, inhibition, significance) (Target Tissue: Type of Lesion: SKIN: PAPILLOMA)","outcome (Carcinogen: BENZO[A]PYRENE, 50-32-8, 5 UMOL IN ACETONE 4 HR PRIOR TO CARCINOGEN DOSE (STUDY DURATION: 20 WK), Strain/Sex: STRAIN-A/FEMALE, Target Tissue: Type of Lesion: SKIN: TUMOR, Dose [Carcinogen]: 0.1 UMOL IN ACETONE ONCE, Promoter: 12-O-TETRADECANOYLPHORBOL-13-ACETATE, 16561-29-8)"
COC(=O)c1cc(O)c(O)c(O)c1,"67%, 24%, 64%, not calculated","94%, 84%, 11%, p<0.025",–
S=C=NCc1cc2ccccc2c2ccccc12,–,–,"85%, 95%, -12%, not significant at 15 wk; 95%, 95%, 0%, not significant at 20 wk"
